These are literature values, as cited in patent US11998562B2 (priority 2021, dated 2024).

The subject of one data set is SARS-CoV. The settings on record: HAE cells; read-out: IC50, inhibition of SARS-CoV replication.
For data set [1] the following is noted: oral delivery.

pIC50: −log10 of the molar value. Entries after “also recorded” stand apart in the source; their conditions may differ.

Consider `CCC(CC)COC(=O)[C@H](C)N[P@](=O)(OC[C@H]1O[C@@](C#N)(c2ccc3c(N)ncnn23)[C@H](O)[C@@H]1O)Oc1ccccc1` [Remdesivir, 2-Ethylbutyl (2S)-2-{[(S)-{[(2R,3S,4R,5R)-5-(4-aminopyrrolo[2,1-f][1,2,4]triazin-7-yl)-5-cyano-3,4-dihydroxytetrahydrofuran-2-yl]methoxy}(phenoxy)phosphoryl]amino}propanoate], for which the solubility in water result is “practically insoluble; also recorded: poorly water soluble”. Moreover, in the data set on SARS-CoV, the pIC50 (usually −log10 of the IC50, conventionally taken in molar units) is 7.16. In data set [1], the first-pass clearance entry is given as “complete”.
